Common to all, as to format: cell-based, human
The test system of experiment [1] is MDA-MB-231 cells. Description: APO LOGIX Carboxyfluorescein Caspase 9 Detection Kit in MDA-MB-231 cells. The source says: (§1) In a still further apoptotic assay, apoptosis can be measured by the APO LOGIX™ Carboxyfluorescein Caspase 9 Detection Kit. The APO LOGIX™ Carboxyfluorescein Caspase 9 Detection Kit uses a cell permeable carboxyfluorescein labeled caspase inhibitor, which binds covalently to active caspases 9. Caspase 9 is involved in initiating apoptosis through the mitochondrial pathway (Budihardjo I., et al. 1999). Cells that contain bound inhibitor are detected by an increase in fluorescence when samples are analyzed by flow cytometry.
(§2) The MDA-MB-231 cell line (ATCC #HTB-26) was derived from the pleural effusion of a patient with a breast adenocarcinoma (Cailleau et al., 1974). The cells were maintained in RPMI 1640 (Gibco) supplemented with 10% fetal bovine serum (Camera), 100 U/mL penicillin, 100 μg/mL streptomycin and 0.25 μg/mL amphotericin B. Cultures were maintained in medium at 37° C. with 5% CO2 and 100% relative humidity.
(§3) MDA-MB-231 cells were treated with PC1448 and assayed for apoptosis as previously described for PC-3 cells.

Another experiment concerns CRL-2522 cells. Description: APO LOGIX Carboxyfluorescein Caspase 9 Detection Kit in CRL-2522 cells.
Excerpt: as §1
CRL-2522 cells, acquired from ATCC, (American Type Culture Collection) are normal fibroblast cells that originated from human foreskin. CRL-2522 cells were maintained in RPMI 1640 medium (Gibco) supplemented with 10% fetal bovine serum (Cansera), 100 U/mL penicillin, 100 μg/mL streptomycin and 0.25 μg/mL amphotericin B. Cultures were maintained in medium at 37° C. with 5% CO2 and 100% relative humidity.
CRL-2522 cells were treated with PC1448 and assayed for apoptosis as described above for PC-3 cells.

Another experiment relates to HT-29 cancer cells. Nature of the experiment: Dual Sensor: MitoCasp Assay in HT-29 colon cancer cells. The conditions noted are these: HT-29 cells, 2.5 μM, 5.0 μM and 10 μM, 23 hours. From the text:
Techniques to assay enzymatic and signaling processes involved in apoptosis have been developed as standard protocols. One example of an early step in apoptosis, is the release of cytochrome C from mitochondria and the activation of caspase-3. Induction of the caspases (a series of cytosolic proteases) is one of the most consistently observed features of apoptosis. Caspases are a family of proteolytic enzymes that transmit the apoptotic signal using a proteolytic cascade. […] Caspases 3 and 7 are effector caspases, central to the caspase cascade pathways. In particular, caspase-3 plays a central role in the process. When caspases are activated, they cleave target proteins; one of the most important of these is poly-(ADP-ribose) polymerase (PARP), which is a protein located in the nucleus. Therefore, assays detecting release of cytochrome C, detecting caspase-3 activity and detecting PARP degradation are effective determinants of apoptosis. The loss of mitochondrial membrane potential is known to occur during apoptosis. […] Collapse of the mitochondrial membrane potential during apoptosis prevents the dye from accumulating in the mitochondria resulting in a decrease in fluorescent intensity that can be detected with flow cytometry. […] In this assay, caspase 3/7 activity is detected using a cell permeable carboxyfluorescein labeled caspase inhibitor, which binds covalently to active caspases 3 and 7. Cells that contain bound inhibitor are detected by an increase in fluorescence when samples are analyzed by flow cytometry.
Following PC1448 treatment, adherent and non-adherent cells were harvested and washed with cold PBS. […] Samples were analyzed by flow cytometry measuring the fluorescence emissions from 515 nm to 530 nm for caspase detection, and 574 nm to 600 nm for mitochondrial membrane potential detection. […]
HT-29 cancer cells were treated with 2.5 μM, 5.0 μM and 10 μM of PC1526 or PC1448 for 23 hours, or with 2.5 μM, 5.0 μM and 10 μM PC1422 for 24 hours and assessed using the Dual Sensor: MitoCasp™ Assay. […]

For experiment [2], the system named is MDA-MB-231 cells. Description: Vybrant Apoptosis Assay Kit #2 in MDA-MB-231 cells.
Excerpt: Another apoptotic assay is the Annexin-V detection of extracellular phosphatidlyserine (PS). Normally, phosphatidylserine is localized on the inner membrane of the plasmalemma. However, during the early stages of apoptosis, externalization of PS takes place. Annexin-V is a calcium binding protein which binds to PS and can be observed with annexin-V-FITC staining by flow cytometry (Martin, et al., 1995). Alexa Fluor® 488-labeled Annexin V, which has a high affinity for PS, is used to detect apoptotic cells by binding to PS on the outer surface of the cell. Propidium iodide staining is used concurrently to detect dead cells. When cells are analyzed by flow cytometry apoptotic cells show Annexin V staining, late apoptotic cells show PI and Annexin V staining, and dead cells show only PI staining. The Vybrant® Apoptosis Assay Kit #2 (Molecular Probes™) used herein in the Examples is an assay that measures Annexin-V positive cells.
as §2, §3

A further experiment concerns WiDr colon cancer cells. Nature of the experiment: Dual Sensor: MitoCasp Assay in WiDr colon cancer cells. The conditions noted are these: 2.5 μM, 5.0 μM, 10 μM, and 15 μM, 24 hours. From the text: Techniques to assay enzymatic and signaling processes involved in apoptosis have been developed as standard protocols. One example of an early step in apoptosis, is the release of cytochrome C from mitochondria and the activation of caspase-3. Induction of the caspases (a series of cytosolic proteases) is one of the most consistently observed features of apoptosis. Caspases are a family of proteolytic enzymes that transmit the apoptotic signal using a proteolytic cascade. […] Caspases 3 and 7 are effector caspases, central to the caspase cascade pathways. In particular, caspase-3 plays a central role in the process. When caspases are activated, they cleave target proteins; one of the most important of these is poly-(ADP-ribose) polymerase (PARP), which is a protein located in the nucleus. […] Collapse of the mitochondrial membrane potential during apoptosis prevents the dye from accumulating in the mitochondria resulting in a decrease in fluorescent intensity that can be detected with flow cytometry. […] In this assay, caspase 3/7 activity is detected using a cell permeable carboxyfluorescein labeled caspase inhibitor, which binds covalently to active caspases 3 and 7. Cells that contain bound inhibitor are detected by an increase in fluorescence when samples are analyzed by flow cytometry. […]

Turning to Segetoside H [PC1448], the “Caspase 9 positive cells” value was found to be 23.2% in the experiment with MDA-MB-231 cells [1] (14 μM PC1448, 10 hr); 29.8% with MDA-MB-231 cells [1] (14 μM PC1448, 15 hr); 30.5% with MDA-MB-231 cells [1] (14 μM PC1448, 20 hr); 39.4% in the experiment on MDA-MB-231 cells [1] (14 μM PC1448, 40 hr); 15.9% in the experiment with CRL-2522 cells (14 μM PC1448, 10 hr); 10.6% in the experiment on CRL-2522 cells (14 μM PC1448, 24 hr). Besides, the “Caspase 9 positive cells” value with CRL-2522 cells (14 μM PC1448, 48 hr) was 9.5%. Also, in the experiment on MDA-MB-231 cells [1] (14 μM PC1448, 40 hours), the “Increase in cells with caspase 9 activity vs untreated (maximum effect)” value was 2.5 fold. The “Change in Caspase 9 positive cells (in words)” value with CRL-2522 cells (14 μM PC1448, 10 to 48 hr) is on record as “No increase in Caspase 9 positive cells”. The “Caspase 3/7 activity compared to untreated cells / induction of apoptosis (in words, FIG. 5)” value with HT-29 cancer cells is reported as “increase in caspase 3/7 activity”. The “Increase in Annexin V positive cells vs untreated” value in the experiment with MDA-MB-231 cells [2] (14 μM PC1448, 12 hours) is listed as 2.7 fold. Also, the Annexin-V positive cells in the experiment with MDA-MB-231 cells [2] (14 μM PC1448, 12 hr) came out at 46.3%; in the experiment with MDA-MB-231 cells [2] (14 μM PC1448, 24 hr) it was 37.9%; in the experiment with MDA-MB-231 cells [2] (14 μM PC1448, 48 hr) it was 37.9%. In addition, the “Induction of apoptosis (in words, FIG. 8)” value in the experiment on WiDr colon cancer cells is reported as “induces apoptosis”.
With Segetoside I [PC1464], the Annexin-V positive cells in the experiment on MDA-MB-231 cells [2] (7 μM PC1464, 12 hr) was 28.8%; in the experiment with MDA-MB-231 cells [2] (7 μM PC1464, 24 hr), 39.7%; in the experiment with MDA-MB-231 cells [2] (7 μM PC1464, 36 hr), 49.3%. For the same substance, in the experiment with MDA-MB-231 cells [2] (7 μM PC1464, 36 hour), the “Increase in Annexin V positive cells vs untreated” value was found to be 3 fold.

Values taken from US20110230430A1, “SAPONIN EXTRACT FROM SAPONARIA SPP. AND USES THEREOF” (NATIONAL RESEARCH COUNCIL OF CANADA, priority 2008, published 2011).
